# Experimental data taken from patent US12264155B2, “Compounds, pharmaceutical compositions, and methods of preparing compounds and of their use as ATR kinase inhibitors” (Repare Therapeutics Inc., priority 2018, dated 2025).
# Test system: ATR kinase (CHK1 phosphorylation at Ser345) in HeLa S3 cells
# Experiment: ATR assay in HeLa S3 cells (CHK1 p-Ser345 AlphaScreen SureFire, gemcitabine); note: gemcitabine 1.5 µM
# Assay type: cell-based
# Conditions: Homo sapiens, HeLa S3, HeLa S3 whole cell assay, 3.5 to 4 hours
# Method: Media was then replaced by 20 μL per well Opti-MEM no phenol red and 5 μL of serial diluted compounds were added to the assay plate for a final DMSO concentration of 0.5%. […] The plate was incubated at 37° C., 1-5% CO2 for 3.5 to 4 hours.
row,Compound,IC50
1,COc1ccc(-c2cc(N3CCOC[C@H]3C)nc3c2cnn3-c2cc[nH]n2)c(C(F)(F)F)c1 [Compound 143],7.2 nM
2,Cc1nc(C(N)=O)c(-c2cc(N3CCOC[C@H]3C)nc3c2cnn3-c2cc[nH]n2)s1 [Compound 127],7 nM
3,C[C@@H]1COCCN1c1cc(C2(O)C3CCC2CN(C)C3)c2cnn(-c3cc[nH]n3)c2n1 (stereo partly shown) [Compound 117],38 nM
4,C[C@@H]1COCCN1c1cc(C2(O)CCC(C(C)(C)C)CC2)c2cnn(-c3ccn[nH]3)c2n1 (stereo partly shown) [Compound 132],1.9 nM
5,C[C@@H]1COCCN1c1cc(C2(O)CCN(CC(F)(F)F)CC2)c2cnn(-c3cc[nH]n3)c2n1 [Compound 120],1.2 nM
6,"C[C@@H]1COCCN1c1cc(-c2ccccc2C(F)(F)F)c2c(=O)[nH]n(-c3ccn[nH]3)c2n1 [Compound 150, 6-[(3R)-3-methylmorpholin-4-yl]-1-(1H-pyrazol-5-yl)-4-[2-(trifluoromethyl)phenyl]-2H-pyrazolo[3,4-b]pyridin-3-one]",7.8 nM
7,CC(C)N1CCC(O)(c2cc(N3CCOC[C@H]3C)nc3c2cnn3-c2cc[nH]n2)CC1 [Compound 118],6.4 nM
8,C[C@@H]1COCCN1c1cc(-c2cccnc2C(F)(F)F)c2c(=O)[nH]n(-c3ccn[nH]3)c2n1 [Compound 151],9.1 nM
9,C[C@@H]1COCCN1c1cc(-c2ccc(C3CC3)nc2N)c2cnn(-c3cc[nH]n3)c2n1 [Compound 146],3.1 nM
10,C[C@@H]1COCCN1c1cc(-c2cccc(Cl)c2C(N)=O)c2cnn(-c3cc[nH]n3)c2n1 [Compound 130],13 nM
11,C[C@@H]1COCCN1c1cc(-c2ccccc2C(C)(C)O)c2cnn(-c3cc[nH]n3)c2n1 [Compound 128],2.4 nM
12,C[C@@H]1COCCN1c1cc(C2(O)CCC(OC(F)(F)F)CC2)c2cnn(-c3ccn[nH]3)c2n1 (stereo partly shown) [Compound 133],1.5 nM
13,C[C@@H]1COCCN1c1cc(C2(O)CCN(C(C)(C)C)CC2)c2cnn(-c3cc[nH]n3)c2n1 [Compound 109],17 nM
14,C[C@@H]1COCCN1c1cc(-c2ccc(F)cc2C(F)(F)F)c2cnn(-c3cc[nH]n3)c2n1 [Compound 142],3.6 nM
15,C[C@@H]1COCCN1c1cc(-c2ccc(F)cc2S(C)(=O)=O)c2cnn(-c3cc[nH]n3)c2n1 [Compound 145],3.8 nM
16,C[C@@H]1COCCN1c1cc(N2CCN(c3ccccn3)CC2)c2cnn(-c3cc[nH]n3)c2n1 [Compound 137],2.1 nM
17,C[C@@H]1COCCN1c1cc(-c2ccccc2S(=O)(=O)NC2CC2)c2cnn(-c3cc[nH]n3)c2n1 [Compound 124],63 nM
18,C[C@@H]1COCCN1c1cc(-c2cccnc2C(F)(F)F)c2cnn(-c3cc[nH]n3)c2n1 [Compound 144],1.3 nM
19,C[C@@H]1COCCN1c1cc(C2(O)CCN(CC(F)F)CC2)c2cnn(-c3cc[nH]n3)c2n1 [Compound 108],1.3 nM
20,"C[C@@H]1COCCN1c1cc(-c2cccnc2N)c2cnn(-c3cc[nH]n3)c2n1 [Compound 125, (R)-3-(6-(3-methylmorpholino)-1-(1H-pyrazol-3-yl)-1H-pyrazolo[3,4-b]pyridin-4-yl)pyridin-2-amine]",11 nM
21,C[C@@H]1COCCN1c1cc(-c2cccnc2C(N)=O)c2cnn(-c3cc[nH]n3)c2n1 [Compound 129],11 nM
22,C[C@@H]1COCCN1c1cc(-c2ccccc2S(C)(=O)=O)c2c(=O)[nH]n(-c3ccn[nH]3)c2n1 [Compound 152],22 nM
23,Cc1ccc(-c2cc(N3CCOC[C@H]3C)nc3c2cnn3-c2cc[nH]n2)c(N)n1 [Compound 139],4.2 nM
24,C[C@@H]1COCCN1c1cc(-c2cccc(C(F)(F)F)c2C(N)=O)c2cnn(-c3cc[nH]n3)c2n1 [Compound 131],1.8 nM
25,C[C@@H]1COCCN1c1cc(C2(O)CC(C)(C)N(C)C(C)(C)C2)c2cnn(-c3cc[nH]n3)c2n1 [Compound 119],14 nM
26,C[C@@H]1COCCN1c1cc(C2=C[C@H]3CC[C@@H](C2)O3)c2cnn(-c3cc[nH]n3)c2n1 [Compound 148],2.5 nM
27,C[C@@H]1COCCN1c1cc(-c2ccc(C(F)(F)F)nc2N)c2cnn(-c3cc[nH]n3)c2n1 [Compound 138],9.4 nM
28,C[C@@H]1COCCN1c1cc(-c2cc(Cl)cnc2N)c2cnn(-c3cc[nH]n3)c2n1 [Compound 140],7.2 nM
29,C[C@@H]1COCCN1c1nc2c(cnn2-c2cc[nH]n2)c(-c2ccccc2C(F)(F)F)c1Cl [Compound 149],27 nM

# The remaining lines, values ahead:
row,IC50,Compound
1,1.7 nM,C[C@@H]1COCCN1c1cc(C2(O)CCC(C#N)CC2)c2cnn(-c3cc[nH]n3)c2n1 (stereo partly shown) [Compound 103]
2,2 nM,C[C@@H]1COCCN1c1cc(C2(O)CCN(c3ccc(C#N)cc3)CC2)c2cnn(-c3cc[nH]n3)c2n1 [Compound 95]
3,2 nM,C[C@@H]1COCCN1c1cc(C2(O)CCOC3(CCC3)C2)c2cnn(-c3cc[nH]n3)c2n1 (stereo partly shown) [Compound 107]
4,0.9 nM,C[C@@H]1COCCN1c1cc([C@@]2(O)C[C@H]3CC[C@@H](C2)O3)c2cnn(-c3cc[nH]n3)c2n1 (stereo in doubt) [Compound 121]
5,3.3 nM,C[C@@H]1COCCN1c1cc([C@]2(O)CC[C@@](C)(C#N)CC2)c2cnn(-c3cc[nH]n3)c2n1 [Compound 106]
6,0.8 nM,C[C@@H]1COCCN1c1cc([C@]2(O)CC[C@@]3(CCCO3)CC2)c2cnn(-c3cc[nH]n3)c2n1 [Compound 112]
7,0.7 nM,C[C@@H]1COCCN1c1cc(C2(O)CCC3(CCOCC3)CC2)c2cnn(-c3cc[nH]n3)c2n1 [Compound 110]
8,1.2 nM,C[C@@H]1COCCN1c1cc([C@]2(O)CC[C@@H](c3ccccc3)CC2)c2cnn(-c3cc[nH]n3)c2n1 [Compound 98]
9,1.1 nM,C[C@@H]1COCCN1c1cc(C2(O)C[C@H]3CC[C@@H](C2)S3)c2cnn(-c3cc[nH]n3)c2n1 (stereo partly shown) [Compound 122]
10,1 nM,COC1CCC(O)(c2cc(N3CCOC[C@H]3C)nc3c2cnn3-c2cc[nH]n2)CC1 (stereo partly shown) [Compound 101]
11,1.1 nM,C[C@@H]1COCCN1c1cc(C2(O)CCC3(CC2)COC3)c2cnn(-c3cc[nH]n3)c2n1 [Compound 105]
12,20 nM,C[C@@H]1COCCN1c1cc(C2(O)CCN(c3ncccc3C(F)(F)F)CC2)c2cnn(-c3cc[nH]n3)c2n1 [Compound 96]
13,0.8 nM,C[C@@H]1COCCN1c1cc([C@]2(O)CC[C@H](C(F)(F)F)CC2)c2cnn(-c3cc[nH]n3)c2n1 [Compound 114]
14,2.4 nM,C[C@@H]1COCCN1c1cc([C@]2(O)CCC[C@H](C(F)(F)F)C2)c2cnn(-c3cc[nH]n3)c2n1 [Compound 104]
15,0.9 nM,C[C@@H]1COCCN1c1cc(C2(O)CCC3(CC3)CC2)c2cnn(-c3cc[nH]n3)c2n1 [Compound 123]
16,0.9 nM,C[C@@H]1COCCN1c1cc([C@]2(O)CC[C@H](c3ccccc3)CC2)c2cnn(-c3cc[nH]n3)c2n1 [Compound 97]
17,2.1 nM,C[C@@H]1COCCN1c1cc([C@]2(O)CC[C@]3(CCCO3)CC2)c2cnn(-c3cc[nH]n3)c2n1 [Compound 113]
18,0.5 nM,C[C@@H]1COCCN1c1cc(C2(O)CCN(c3cccc(F)c3)CC2)c2cnn(-c3cc[nH]n3)c2n1 [Compound 93]
19,1.9 nM,C[C@@H]1COCCN1c1cc(C2(O)CCN(c3ccc(Cl)cc3)CC2)c2cnn(-c3cc[nH]n3)c2n1 [Compound 94]
20,2.4 nM,C[C@@H]1COCCN1c1cc(C2(O)CCCOCC2)c2cnn(-c3cc[nH]n3)c2n1 (stereo partly shown) [Compound 111]
21,1.2 nM,C[C@@H]1COCCN1c1cc(C2(O)CCN(c3ccc(F)cc3)CC2)c2cnn(-c3cc[nH]n3)c2n1 [Compound 116]
22,0.9 nM,COCC1CCC(O)(c2cc(N3CCOC[C@H]3C)nc3c2cnn3-c2cc[nH]n2)CC1 (stereo partly shown) [Compound 102]
23,46 nM,C[C@@H]1COCCN1c1cc(N2CCCOCC2=O)c2cnn(-c3cc[nH]n3)c2n1 [Compound 136]
